Peptide text beside a SMILES is read from it.
Molecular target: hMC4-R (Homo sapiens (Human), UniProt P32245)
Assay: Competitive binding assay using Eu-NDP-α-MSH (TRF), hMC4-R membranes
Conditions: averaged; Eu-NDP-α-MSH (values marked *); read-out: MC4-R Ki
Protocol: Alternatively, a competitive inhibition binding assay was performed employing Eu-NDP-α-MSH (PerkinElmer Life Sciences catalog No. AD0225) with determination by time-resolved fluorometry (TRF) of the lanthanide chelate. […] After incubation for 90 minutes at 37° C., the reaction was stopped by filtration over AcroWell 96-well filter plates (Pall Life Sciences). The filter plates were washed 4 times with 200 μL of ice-cold phosphate-buffered saline. DELFIA Enhancement solution (PerkinElmer Life Sciences) was added to each well. […] Each assay was conducted in duplicate and mean values were utilized. Ki values were determined by curve-fitting with Graph-Pad Prism® software using a one-site fixed-slope competition binding model.

hMC4-R, sequence (P32245 whole entry): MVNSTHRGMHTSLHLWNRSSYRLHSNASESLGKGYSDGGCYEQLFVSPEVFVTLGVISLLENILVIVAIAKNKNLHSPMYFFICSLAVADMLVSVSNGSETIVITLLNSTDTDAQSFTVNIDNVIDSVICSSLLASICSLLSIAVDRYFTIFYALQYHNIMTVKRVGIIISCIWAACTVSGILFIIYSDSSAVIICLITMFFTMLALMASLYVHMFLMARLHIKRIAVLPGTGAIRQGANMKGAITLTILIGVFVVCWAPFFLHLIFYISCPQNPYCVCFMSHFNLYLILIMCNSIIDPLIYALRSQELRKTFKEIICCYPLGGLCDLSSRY

SMILES	Ki
CC(=O)N[C@@H](CCCNC(=N)N)C(=O)N[C@H]1CC(=O)NCCCC[C@@H](C(N)=O)NC(=O)[C@H](Cc2c[nH]c3ccccc23)NC(=O)[C@H](CCCNC(=N)N)NC(=O)[C@@H](Cc2ccccc2)NC(=O)[C@@H]2C[C@@H](OCc3ccccc3)CN2C1=O [compound 15, Ac-Arg-cyclo(Asp- Hyp(Bzl)-D-Phe-Arg- Trp-Lys)-NH2]	0.7 nM
CC(=O)N[C@@H](CCCNC(=N)N)C(=O)N[C@H]1CC(=O)NCCCC[C@@H](C(N)=O)NC(=O)[C@H](Cc2c[nH]c3ccccc23)NC(=O)[C@H](CCCNC(=N)N)NC(=O)[C@@H](Cc2ccccc2)NC(=O)[C@@H]2C[C@@H](Cc3ccccc3)CN2C1=O [compound 18, Ac-Arg-cyclo(Asp- Pro(4R-Bzl)-D-Phe-Arg- Trp-Lys)-NH2]	3 nM
CC(=O)N[C@@H](CCCNC(=N)N)C(=O)N[C@H]1CC(=O)NCCCC[C@@H](C(N)=O)NC(=O)[C@H](Cc2c[nH]c3ccccc23)NC(=O)[C@H](CCCNC(=N)N)NC(=O)[C@@](C)(Cc2ccccc2)NC(=O)[C@H](Cc2c[nH]cn2)NC1=O [compound 60, Ac-Arg-cyclo(Asp-His- D-(alpha-Me)Phe-Arg- Trp-Lys)-NH2]	47 nM
CC(=O)N[C@H](CCCNC(=N)N)C(=O)N[C@H]1CC(=O)NCCCC[C@@H](C(N)=O)NC(=O)[C@H](Cc2c[nH]c3ccccc23)NC(=O)[C@H](CCCNC(=N)N)NC(=O)[C@@H](Cc2ccccc2)NC(=O)[C@@H]2C[C@@H](Cc3ccccc3)CN2C1=O [compound 72, Ac-D-Arg-cyclo(Asp- Pro(4R-Bzl)-D-Phe-Arg- Trp-Lys)-NH2]	2 nM
CC(=O)N[C@H](CCCNC(=N)N)C(=O)N[C@H]1CCC(=O)NCCC[C@@H](C(=O)O)NC(=O)[C@H](Cc2c[nH]c3ccccc23)NC(=O)[C@H](CCCNC(=N)N)NC(=O)[C@@H](Cc2ccccc2)NC(=O)[C@H](Cc2c[nH]cn2)NC1=O [compound 85, Ac-D-Arg-cyclo(Glu- His-D-Phe-Arg-Trp- Orn)-OH] (HELM PEPTIDE1{[ac].[dR].E.H.[dF].R.W.[Orn]}$PEPTIDE1,PEPTIDE1,3:R3-8:R3$$$V2.0)	40 nM
CCNC(=O)[C@@H]1CCCNC(=O)CC[C@H](NC(=O)[C@H](CCCNC(=N)N)NC(C)=O)C(=O)N[C@@H](Cc2c[nH]cn2)C(=O)N[C@H](Cc2ccccc2)C(=O)N[C@@H](CCCNC(=N)N)C(=O)N[C@@H](Cc2c[nH]c3ccccc23)C(=O)N1 [compound 109, Ac-Arg-cyclo(Glu-His- D-Phe-Arg-Trp-Orn)- NH-Et] (HELM PEPTIDE1{[ac].R.E.H.[dF].R.W.[Orn].[CCN[*:1]]}$PEPTIDE1,PEPTIDE1,3:R3-8:R3$$$V2.0)	6 nM
CC(=O)N[C@@H](CCCNC(=N)N)C(=O)N[C@H]1CCC(=O)NCCC[C@@H](C(=O)NC2CC2)NC(=O)[C@H](Cc2c[nH]c3ccccc23)NC(=O)[C@H](CCCNC(=N)N)NC(=O)[C@@H](Cc2ccccc2)NC(=O)[C@H](Cc2c[nH]cn2)NC1=O [compound 110, Ac-Arg-cyclo(Glu-His- D-Phe-Arg-Trp-Orn)- NH-cyclopropyl] (HELM PEPTIDE1{[ac].R.E.H.[dF].R.W.[Orn].[C1CC1N[*:1]]}$PEPTIDE1,PEPTIDE1,3:R3-8:R3$$$V2.0)	1 nM

The next lines start with the values.

Ki	SMILES
33 nM	CC(=O)N[C@@H](CCCNC(=N)N)C(=O)N[C@H]1CC(=O)NCCCC[C@@H](C(N)=O)NC(=O)[C@H](Cc2c[nH]c3ccccc23)NC(=O)[C@H](CCCNC(=N)N)NC(=O)[C@@H](Cc2ccccc2)NC(=O)[C@H](CC(C)C)NC1=O [compound 12, Ac-Arg-cyclo(Asp-Leu- D-Phe-Arg-Trp-Lys)- NH2] (HELM PEPTIDE1{[ac].R.D.L.[dF].R.W.K.[am]}$PEPTIDE1,PEPTIDE1,3:R3-8:R3$$$V2.0)
4 nM	CC(=O)N[C@@H](CCCNC(=N)N)C(=O)N[C@H]1CC(=O)NCCCC[C@@H](C(N)=O)NC(=O)[C@H](Cc2c[nH]c3ccccc23)NC(=O)[C@H](CCCNC(=N)N)NC(=O)[C@@H](Cc2ccccc2)NC(=O)[C@H](CCCNC(=N)N)NC1=O [compound 28, Ac-Arg-cyclo(Asp-Arg- D-Phe-Arg-Trp-Lys)- NH2]
19 nM	CC[C@H](C)[C@@H]1NC(=O)[C@@H](NC(=O)[C@H](CCCNC(=N)N)NC(C)=O)CC(=O)NCCCC[C@@H](C(N)=O)NC(=O)[C@H](Cc2c[nH]c3ccccc23)NC(=O)[C@H](CCCNC(=N)N)NC(=O)[C@@H](Cc2ccccc2)NC1=O [compound 34, Ac-Arg-cyclo(Asp-Ile-D- Phe-Arg-Trp-Lys)-NH2] (HELM PEPTIDE1{[ac].R.D.I.[dF].R.W.K.[am]}$PEPTIDE1,PEPTIDE1,3:R3-8:R3$$$V2.0)
140 nM	CC(=O)N[C@@H](CCCNC(=N)N)C(=O)N[C@H]1CC(=O)NCCCC[C@@H](C(N)=O)NC(=O)[C@H](Cc2c[nH]c3ccccc23)NC(=O)[C@H](CCCNC(=N)N)NC(=O)[C@@H](Cc2ccccc2)NC(=O)[C@H]([C@@H](C)O)NC1=O [compound 35, Ac-Arg-cyclo(Asp-Thr- D-Phe-Arg-Trp-Lys)- NH2] (HELM PEPTIDE1{[ac].R.D.T.[dF].R.W.K.[am]}$PEPTIDE1,PEPTIDE1,3:R3-8:R3$$$V2.0)
35 nM	CSCC[C@@H]1NC(=O)[C@@H](NC(=O)[C@H](CCCNC(=N)N)NC(C)=O)CC(=O)NCCCC[C@@H](C(N)=O)NC(=O)[C@H](Cc2c[nH]c3ccccc23)NC(=O)[C@H](CCCNC(=N)N)NC(=O)[C@@H](Cc2ccccc2)NC1=O [compound 38, Ac-Arg-cyclo(Asp-Met- D-Phe-Arg-Trp-Lys)- NH2] (HELM PEPTIDE1{[ac].R.D.M.[dF].R.W.K.[am]}$PEPTIDE1,PEPTIDE1,3:R3-8:R3$$$V2.0)
80 nM	CC(=O)N[C@@H](CCCNC(=N)N)C(=O)N[C@H]1CC(=O)NCCCC[C@@H](C(N)=O)NC(=O)[C@H](Cc2c[nH]c3ccccc23)NC(=O)[C@H](CCCNC(=N)N)NC(=O)[C@@H](Cc2ccccc2)NC(=O)[C@H](CN)NC1=O [compound 62, Ac-Arg-cyclo(Asp-Dap- D-Phe-Arg-Trp-Lys)- NH2]
46 nM	CC(=O)N[C@H](CCCNC(=N)N)C(=O)N[C@H]1CC(=O)NCCCC[C@@H](C(N)=O)NC(=O)[C@H](Cc2c[nH]c3ccccc23)NC(=O)[C@H](CCCNC(=N)N)NC(=O)[C@@H](Cc2ccccc2)NC(=O)[C@H](C)NC1=O [compound 70, Ac-D-Arg-cyclo(Asp- Ala-D-Phe-Arg-Trp- Lys)-NH2]
60 nM	CC(=O)N[C@@H](CCCNC(=N)N)C(=O)N[C@H]1CC(=O)NCCCC[C@@H](C(=O)O)NC(=O)[C@H](Cc2c[nH]c3ccccc23)NC(=O)[C@H](CCCNC(=N)N)NC(=O)[C@@H](Cc2ccccc2)NC(=O)[C@H](CCCNC(=N)N)NC1=O [compound 73, Ac-Arg-cyclo(Asp-Arg- D-Phe-Arg-Trp-Lys)-OH]
113 nM	CC(=O)N[C@@H](CCCNC(=N)N)C(=O)N[C@H]1CCC(=O)NCCC[C@@H](C(=O)O)NC(=O)[C@H](Cc2c[nH]c3ccccc23)NC(=O)[C@H](CCCNC(=N)N)NC(=O)[C@@H](Cc2ccccc2)NC(=O)[C@H](CCCCN)NC1=O [compound 89, Ac-Arg-cyclo(Glu-Lys- D-Phe-Arg-Trp-Orn)- OH] (HELM PEPTIDE1{[ac].R.E.K.[dF].R.W.[Orn]}$PEPTIDE1,PEPTIDE1,3:R3-8:R3$$$V2.0)
1 nM	CC(=O)N[C@@H](CCCNC(=N)N)C(=O)N[C@H]1CCCCNC(=O)C[C@@H](C(N)=O)NC(=O)[C@H](Cc2c[nH]c3ccccc23)NC(=O)[C@H](CCCNC(=N)N)NC(=O)[C@@H](Cc2ccccc2)NC(=O)[C@H](Cc2c[nH]cn2)NC1=O [compound 96, Ac-Arg-cyclo(Lys-His- D-Phe-Arg-Trp-Asp)- NH2] (HELM PEPTIDE1{[ac].R.K.H.[dF].R.W.D.[am]}$PEPTIDE1,PEPTIDE1,3:R3-8:R3$$$V2.0; bridges inferred)

— US8846601B2, “Melanocortin receptor-specific peptides” (Palatin Technologies, Inc., priority 2009, dated 2014)
